# In ChEMBL document CHEMBL1148896, “BI-32169, a bicyclic 19-peptide with strong glucagon receptor antagonist activity from Streptomyces sp” (J Nat Prod, 2004):
# Bridge positions count the residues as written; N and C are the ends. Peptide text beside a SMILES is read from it. I, II: the chains in the order shown.
# Target: Glucagon receptor (Homo sapiens, UniProt P47871)
# Test: Antagonist activity at human glucagon receptor expressed in BHK21 cells assessed as inhibition of glucagon-induced cAMP elevation by RIA
# Format: functional, cell-based, BHK-21
# Chain of Glucagon receptor (P47871 whole entry): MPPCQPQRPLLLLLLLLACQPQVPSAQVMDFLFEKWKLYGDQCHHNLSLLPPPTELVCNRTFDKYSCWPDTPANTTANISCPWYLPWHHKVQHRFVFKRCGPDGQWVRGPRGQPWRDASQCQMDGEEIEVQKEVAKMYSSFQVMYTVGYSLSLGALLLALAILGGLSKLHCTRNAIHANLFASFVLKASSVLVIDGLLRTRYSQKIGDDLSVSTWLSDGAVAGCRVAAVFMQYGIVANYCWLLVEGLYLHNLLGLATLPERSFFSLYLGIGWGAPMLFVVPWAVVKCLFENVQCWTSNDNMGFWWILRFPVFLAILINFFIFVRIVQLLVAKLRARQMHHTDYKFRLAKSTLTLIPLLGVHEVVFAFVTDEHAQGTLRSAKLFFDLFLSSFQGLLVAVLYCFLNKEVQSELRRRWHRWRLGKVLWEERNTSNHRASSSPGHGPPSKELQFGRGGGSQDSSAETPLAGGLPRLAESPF
row,IC50 [nM],Structure (SMILES)
1,440,CC[C@H](C)[C@@H]1NC(=O)[C@@H]2CC(=O)NCC(=O)N[C@@H](CC(C)C)C(=O)N3CCC[C@H]3C(=O)N[C@@H](Cc3c[nH]c4ccccc34)C(=O)NCC(=O)N[C@@H](CSSC[C@@H](C(=O)O)NC(=O)[C@H](C)NC(=O)[C@H](Cc3c[nH]c4ccccc34)NC(=O)[C@@H]3CCCN3C(=O)[C@H]([C@@H](C)O)NC(=O)[C@H](CC(N)=O)NC(=O)[C@H](Cc3c[nH]c4ccccc34)NC(=O)CNC(=O)[C@@H]3CCCN3C1=O)C(=O)N1CCC[C@H]1C(=O)N[C@@H](CO)C(=O)N2 (GLPWGCPSDIPGWNTPWAC-OH; disulfide 6-19; lactam N-9)
2,320,CC[C@H](C)[C@@H]1NC(=O)C[C@@H]2NC(=O)[C@H](CO)NC(=O)[C@@H]3CCCN3C(=O)[C@H](CSSC[C@@H](C(=O)OC)NC(=O)[C@H](C)NC(=O)[C@H](Cc3c[nH]c4ccccc34)NC(=O)[C@@H]3CCCN3C(=O)[C@H]([C@@H](C)O)NC(=O)[C@H](CC(N)=O)NC(=O)[C@H](Cc3c[nH]c4ccccc34)NC(=O)CNC(=O)[C@@H]3CCCN3C1=O)NC(=O)CNC(=O)[C@H](Cc1c[nH]c3ccccc13)NC(=O)[C@@H]1CCCN1C(=O)[C@H](CC(C)C)NC(=O)CNC2=O (I: IPGWNTPWAC-OMe / II: cyclo(CPSDGLPWG); disulfide I:10-II:1; amide I:N-II:4)
3,20000,CC1CC(=O)c2c(cc3c(-c4c(O)cc(O)c5c(O)c6c(cc45)OC(C)CC6=O)c(O)cc(O)c3c2O)O1 (stereo not drawn) [CEPHALOCHROMIN]
